Test results: patent US9688710B2, “Inhibitors of sodium glucose cotransporter 1” (LEXICON PHARMACEUTICALS, INC., priority 2012, dated 2017)

Experiments:
[1] = target: Human sodium/glucose co-transporter type 2 (SGLT2) (Homo sapiens (Human), UniProt P31639); test: In vitro human SGLT2 inhibition assay (14C-AMG uptake); assay type: cell-based; details: HEK293 cells expressing human HA-SGLT2, 14C-AMG uptake
Experimental: Human sodium/glucose co-transporter type 2 (SGLT2; accession number P31639; GI:400337) was cloned into pIRESpuro2 vector for mammalian expression (construct: HA-SGLT2-pIRESpuro2).
HEK293 cells were transfected with the human HA-SGLT2-pIRESpuro2 vector and the bulk stable cell line was selected in presence of 0.5 μg/mL of puromycin. Human HA-SGLT2 cells were maintained in DMEM media containing 10% FBS, 1% GPS and 0.5 μg/mL of puromycin.
The HEK293 cells expressing the human HA-SGLT2 were seeded in 384 well plates (30,000 cells/well) in DMEM media containing 10% FBS, 1% GPS and 0.5 μg/mL of puromycin, then incubated overnight at 37 C, 5% CO2. Cells were then washed with uptake buffer (140 mM NaCl, 2 mM KCl, 1 mM CaCl2, 1 mM MgCl2, 10 mM HEPES, 5 mM Tris, 1 mg/mL bovine serum albumin (BSA), pH 7.3). Twenty microliters of uptake buffer with or without testing compounds were added to the cells. Then, 20 microliters of uptake buffer containing ^14C-AMG (100 nCi) were added to the cells. The cell plates were incubated at 37° C., 5% CO2 for 1-2 hours. After washing the cells with uptake buffer, scintillation fluid was added (40 microliters/well) and ^14C-AMG uptake was measured by counting radioactivity using a scintillation coulter (TopCoulter NXT; Packard Instruments).

[2] = target: Human sodium/glucose co-transporter type 1 (SGLT1) (Homo sapiens (Human), UniProt P13866); test: In vitro human SGLT1 inhibition assay (14C-AMG uptake); assay type: cell-based; set-up: key to SGLT1 (human SGLT1 IC50): ***: a value less than 0.01 μM; **: a value less than 0.1 μM; *: a value less than 1 μM; —: a value not measured or exceeding μM; details: HEK293 cells expressing human HA-SGLT1, 14C-AMG uptake
Chain of Human sodium/glucose co-transporter type 1 (SGLT1) (P13866 whole entry): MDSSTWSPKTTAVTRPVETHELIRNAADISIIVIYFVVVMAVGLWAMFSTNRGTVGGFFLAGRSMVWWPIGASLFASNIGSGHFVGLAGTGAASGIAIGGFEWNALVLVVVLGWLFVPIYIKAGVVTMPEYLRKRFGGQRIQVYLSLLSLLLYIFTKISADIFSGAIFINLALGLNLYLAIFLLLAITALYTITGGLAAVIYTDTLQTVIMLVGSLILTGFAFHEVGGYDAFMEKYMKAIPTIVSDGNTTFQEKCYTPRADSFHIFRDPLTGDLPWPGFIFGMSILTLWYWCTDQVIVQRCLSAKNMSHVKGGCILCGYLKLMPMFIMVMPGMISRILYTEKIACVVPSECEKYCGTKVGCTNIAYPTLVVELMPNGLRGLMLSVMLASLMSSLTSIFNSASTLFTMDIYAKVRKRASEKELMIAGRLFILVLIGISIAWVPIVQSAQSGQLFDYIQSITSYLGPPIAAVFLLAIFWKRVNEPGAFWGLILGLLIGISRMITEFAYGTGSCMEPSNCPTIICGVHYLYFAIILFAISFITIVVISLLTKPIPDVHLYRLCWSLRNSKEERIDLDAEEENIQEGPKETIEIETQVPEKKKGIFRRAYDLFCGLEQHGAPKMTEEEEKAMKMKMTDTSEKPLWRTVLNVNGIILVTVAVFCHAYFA
Experimental: Human sodium/glucose co-transporter type 1 (SGLT1; accession number NP_000334; GI: 4507031) was cloned into pIRESpuro2 vector for mammalian expression (construct: HA-SGLT1-pIRESpuro2).
HEK293 cells were transfected with the human HA-SGLT1-pIRESpuro2 vector and the bulk stable cell line was selected in presence of 0.5 μg/mL of puromycin. Human HA-SGLT1 cells were maintained in DMEM media containing 10% FBS, 1% GPS and 0.5 μg/mL of puromycin.
The HEK293 cells expressing the human HA-SGLT1 were seeded in 384 well plates (30,000 cells/well) in DMEM media containing 10% FBS, 1% GPS and 0.5 μg/mL of puromycin, then incubated overnight at 37 C, 5% CO2. Cells were then washed with uptake buffer (140 mM NaCl, 2 mM KCl, 1 mM CaCl2, 1 mM MgCl2, 10 mM HEPES, 5 mM Tris, 1 mg/mL bovine serum albumin (BSA), pH 7.3). Twenty microliters of uptake buffer with or without testing compounds were added to the cells. Then, 20 microliters of uptake buffer containing ^14C-AMG (100 nCi) were also added to cells. The cell plates were incubated at 37° C., 5% CO2 for 1-2 hours. After washing the cells with uptake buffer, scintillation fluid was added (40 microliters/well) and ^14C-AMG uptake was measured by counting radioactivity using a scintillation coulter (TopCoulter NXT; Packard Instruments).

Chain of Human sodium/glucose co-transporter type 2 (SGLT2) (P31639 whole entry): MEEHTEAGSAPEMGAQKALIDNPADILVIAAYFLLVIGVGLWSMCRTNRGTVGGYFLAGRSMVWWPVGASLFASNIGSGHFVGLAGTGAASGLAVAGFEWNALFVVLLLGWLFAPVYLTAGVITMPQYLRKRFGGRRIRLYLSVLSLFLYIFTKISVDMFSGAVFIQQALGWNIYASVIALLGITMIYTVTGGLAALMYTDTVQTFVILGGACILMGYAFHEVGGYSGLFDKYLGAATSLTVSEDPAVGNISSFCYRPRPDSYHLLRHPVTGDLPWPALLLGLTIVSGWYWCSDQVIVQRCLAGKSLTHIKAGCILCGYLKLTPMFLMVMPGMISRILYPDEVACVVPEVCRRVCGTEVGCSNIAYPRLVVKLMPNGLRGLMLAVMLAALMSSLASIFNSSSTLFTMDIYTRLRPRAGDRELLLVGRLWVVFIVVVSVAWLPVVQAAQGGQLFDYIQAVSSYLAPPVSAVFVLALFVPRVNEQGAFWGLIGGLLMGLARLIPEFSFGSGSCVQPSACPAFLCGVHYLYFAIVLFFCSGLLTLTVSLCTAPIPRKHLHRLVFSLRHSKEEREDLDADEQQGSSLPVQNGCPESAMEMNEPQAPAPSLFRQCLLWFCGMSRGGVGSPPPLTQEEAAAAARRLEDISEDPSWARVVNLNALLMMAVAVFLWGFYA

Row | SMILES | IC50 [1] [nM] | IC50 [2] [nM] | SGLT1 (human SGLT1 IC50) [2]
1 | CS[C@H]1O[C@@H](c2ccc(C)c(Cc3ccc(CCCC#N)cc3)c2)[C@H](O)[C@@H](O)[C@@H]1O [4-(4-(2-methyl-5-((2S,3R,4R,5S,6R)-3,4,5-trihydroxy-6-(methylthio)tetrahydro-2H-pyran-2-yl)benzyl)phenyl)butanenitrile] | < 100 |  | —
2 | CS[C@H]1O[C@@H](c2ccc(C)c(Cc3ccc(CCCCC(=O)NC(C)(C)C(=O)O)cc3)c2)[C@H](O)[C@@H](O)[C@@H]1O [2-methyl-2-(5-(4-(2-methyl-5-((2S,3R,4R,5S,6R)-3,4,5-trihydroxy-6-(methylthio)tetrahydro-2H-pyran-2-yl)benzyl)phenyl)pentanamido)propanoic acid] | < 100 |  | —
3 | CS[C@H]1O[C@@H](c2ccc(C)c(Cc3ccc(CCCCNC4(C(N)=O)CCCC4)cc3)c2)[C@H](O)[C@@H](O)[C@@H]1O [1-((4-(4-(2-methyl-5-((2S,3R,4R,5S,6R)-3,4,5-trihydroxy-6-(methylthio)tetrahydro-2H-pyran-2-yl)benzyl)phenyl)butyl)amino)cyclopentanecarboxamide] | < 10 | < 100 | 
4 | CS[C@H]1O[C@@H](c2ccc(C)c(Cc3ccc(CCCC(=O)NCC(C)(C)C(=O)O)cc3)c2)[C@H](O)[C@@H](O)[C@@H]1O [2,2-dimethyl-3-(4-(4-(2-methyl-5-((2S,3R,4R,5S,6R)-3,4,5-trihydroxy-6-(methylthio)tetrahydro-2H-pyran-2-yl)benzyl)phenyl)butanamido)propanoic acid] | < 10 | < 100 | 
5 | CS[C@H]1O[C@@H](c2ccc(C)c(Cc3ccc(CCCCCCC(=O)NC(C)(C)CO)cc3)c2)[C@H](O)[C@@H](O)[C@@H]1O [N-(1-hydroxy-2-methylpropan-2-yl)-7-(4-(2-methyl-5-((2S,3R,4R,5S,6R)-3,4,5-trihydroxy-6-(methylthio)tetrahydro-2H-pyran-2-yl)benzyl)phenyl)heptanamide] | < 10 | < 100 | 
6 | CCC(=O)NCCOc1ccc(Cc2cc([C@@H]3O[C@H](SC)[C@@H](O)[C@H](O)[C@H]3O)ccc2Cl)cc1 [N-(2-(4-(2-chloro-5-((2S,3R,4R,5S,6R)-3,4,5-trihydroxy-6-(methylthio)tetrahydro-2H-pyran-2-yl)benzyl)phenoxy)ethyl)propionamide] | < 10 | < 10 | 
7 | CS[C@H]1O[C@@H](c2ccc(Cl)c(Cc3ccc(OCC(=O)NC(C)(C)C(=O)N4CCN(C)CC4)cc3)c2)[C@H](O)[C@@H](O)[C@@H]1O [2-(4-(2-chloro-5-((2S,3R,4R,5S,6R)-3,4,5-trihydroxy-6-(methylthio)tetrahydro-2H-pyran-2-yl)benzyl)phenoxy)-N-(2-methyl-1-(4-methylpiperazin-1-yl)-1-oxopropan-2-yl)acetamide] | < 10 | < 100 | 
8 | CS[C@H]1O[C@@H](c2ccc(C)c(Cc3ccc(OCCNC(=O)NC(C)(C)CO)cc3)c2)[C@H](O)[C@@H](O)[C@@H]1O [1-(1-hydroxy-2-methylpropan-2-yl)-3-(2-(4-(2-methyl-5-((2S,3R,4R,5S,6R)-3,4,5-trihydroxy-6-(methylthio)tetrahydro-2H-pyran-2-yl)benzyl)phenoxy)ethyl)urea] |  | < 100 | 

The next lines start with the values.

Row | IC50 [1] [nM] | IC50 [2] [nM] | SGLT1 (human SGLT1 IC50) [2] | SMILES
9 | < 10 | < 10 |  | CS[C@H]1O[C@@H](c2ccc(C)c(Cc3ccc(OCCCC(=O)NC(C)(C)C(=O)NC4CCN(C)CC4)cc3)c2)[C@H](O)[C@@H](O)[C@@H]1O [N-(2-methyl-1-((1-methylpiperidin-4-yl)amino)-1-oxopropan-2-yl)-4-(4-(2-methyl-5-((2S,3R,4R,5S,6R)-3,4,5-trihydroxy-6-(methylthio)tetrahydro-2H-pyran-2-yl)benzyl)phenoxy)butanamide]
10 | < 10 | < 100 |  | CS[C@H]1O[C@@H](c2ccc(C)c(Cc3ccc(CCCCC(=O)NCCCC[C@H](N)C(=O)O)cc3)c2)[C@H](O)[C@@H](O)[C@@H]1O [(S)-2-amino-6-(5-(4-(2-methyl-5-((2S,3R,4R,5S,6R)-3,4,5-trihydroxy-6-(methylthio)tetrahydro-2H-pyran-2-yl)benzyl)phenyl)pentanamido)hexanoic acid]
11 | < 10 | < 10 |  | CS[C@H]1O[C@@H](c2ccc(C)c(Cc3ccc(OCCCC(=O)NC(C)(C)C(=O)NCCN(C)C)cc3)c2)[C@H](O)[C@@H](O)[C@@H]1O [N-(1-((2-(dimethylamino)ethyl)amino)-2-methyl-1-oxopropan-2-yl)-4-(4-(2-methyl-5-((2S,3R,4R,5S,6R)-3,4,5-trihydroxy-6-(methylthio)tetrahydro-2H-pyran-2-yl)benzyl)phenoxy)butanamide]
12 | < 10 | < 10 |  | CS[C@H]1O[C@@H](c2ccc(C)c(Cc3ccc(CCCC(=O)NC4(C(=O)N5CCN(C)CC5)CC4)cc3)c2)[C@H](O)[C@@H](O)[C@@H]1O [4-(4-(2-methyl-5-((2S,3R,4R,5S,6R)-3,4,5-trihydroxy-6-(methylthio)tetrahydro-2H-pyran-2-yl)benzyl)phenyl)-N-(1-(4-methylpiperazine-1-carbonyl)cyclopropyl)butanamide]
13 | < 10 | < 100 |  | CS[C@H]1O[C@@H](c2ccc(C)c(Cc3ccc(OCCCC(=O)NCC(C)(C)C(N)=O)cc3)c2)[C@H](O)[C@@H](O)[C@@H]1O [N-(3-amino-2,2-dimethyl-3-oxopropyl)-4-(4-(2-methyl-5-((2S,3R,4R,5S,6R)-3,4,5-trihydroxy-6-(methylthio)tetrahydro-2H-pyran-2-yl)benzyl)phenoxy)butanamide]
14 | < 10 | < 10 |  | CS[C@H]1O[C@@H](c2ccc(C)c(Cc3ccc(CCCCNCC(C)(C)C(=O)N4CCN(C)CC4)cc3)c2)[C@H](O)[C@@H](O)[C@@H]1O [2,2-dimethyl-3-((4-(4-(2-methyl-5-((2S,3R,4R,5S,6R)-3,4,5-trihydroxy-6-(methylthio)tetrahydro-2H-pyran-2-yl)benzyl)phenyl)butyl)amino)-1-(4-methylpiperazin-1-yl)propan-1-one]
15 | < 10 | < 10 |  | CS[C@H]1O[C@@H](c2ccc(C)c(Cc3ccc(CCCc4nnn(CC(=O)N5CCN(C)CC5)n4)cc3)c2)[C@H](O)[C@@H](O)[C@@H]1O [2-(5-(3-(4-(2-methyl-5-((2S,3R,4R,5S,6R)-3,4,5-trihydroxy-6-(methylthio)tetrahydro-2H-pyran-2-yl)benzyl)phenyl)propyl)-2H-tetrazol-2-yl)-1-(4-methylpiperazin-1-yl)ethanone]
16 | < 10 | < 10 |  | CS[C@H]1O[C@@H](c2ccc(C)c(Cc3ccc(CCCC(=O)NCC(C)(C)N)cc3)c2)[C@H](O)[C@@H](O)[C@@H]1O [N-(2-amino-2-methylpropyl)-4-(4-(2-methyl-5-((2S,3R,4R,5S,6R)-3,4,5-trihydroxy-6-(methylthio)tetrahydro-2H-pyran-2-yl)benzyl)phenyl)butanamide]
17 | < 10 | < 100 |  | CS[C@H]1O[C@@H](c2ccc(Cl)c(Cc3ccc(OCCCC(=O)NCC(C)(C)C(N)=O)cc3)c2)[C@H](O)[C@@H](O)[C@@H]1O [N-(3-amino-2,2-dimethyl-3-oxopropyl)-4-(4-(2-chloro-5-((2S,3R,4R,5S,6R)-3,4,5-trihydroxy-6-(methylthio)tetrahydro-2H-pyran-2-yl)benzyl)phenoxy)butanamide]
18 | < 10 | < 100 |  | CS[C@H]1O[C@@H](c2ccc(C)c(Cc3ccc(/C=C/CC(C(=O)NC(C)(C)C(N)=O)C(=O)NC(C)(C)C(N)=O)cc3)c2)[C@H](O)[C@@H](O)[C@@H]1O [N1,N3-bis(1-amino-2-methyl-1-oxopropan-2-yl)-2-((E)-3-(4-(2-methyl-5-((2S,3R,4R,5S,6R)-3,4,5-trihydroxy-6-(methylthio)tetrahydro-2H-pyran-2-yl)benzyl)phenyl)allyl)malonamide]
